Experimental data: ChEMBL document CHEMBL1136198, “Pyrazolo[4,3-d]pyrimidines as new generation of cyclin-dependent kinase inhibitors” (Bioorg Med Chem Lett, 2003)

Assays:
[1] = target: K-562 (Homo sapiens)
[2] = target: K-562 cell line (Homo sapiens); conditions: k562
[3] = target: Cyclin-dependent kinase 1/cyclin B (Homo sapiens, UniProt P06493); experiment: Inhibitory concentration against Cyclin-dependent kinase 1-cyclin B; type: protein-complex assay

| SMILES | IC50 [1] [µM] | IC50 [2] [uM dm**-3] | IC50 [3] [µM] |
| --- | --- | --- | --- |
| CC(C)n1cnc2c(NCc3cccc(O)c3)ncnc21 | – | > 167 | 3.1 |
| CCCCCNc1ncnc2c(C(C)C)n[nH]c12 | 61 | – | 1.2 |
| CC(C)n1cnc2c(Nc3cccc(Cl)c3)ncnc21 | 54 | – | 5.9 |
| CC(C)n1cnc2c(NCc3ccco3)ncnc21 | – | > 167 | 9.1 |
| CC(C)=CCNc1ncnc2c1ncn2C(C)C | – | > 167 | 17 |
| CC(C)n1cnc2c(NCc3ccc(O)cc3)ncnc21 | – | > 167 | 4 |
| CC(C)n1cnc2c(NCc3ccccc3)ncnc21 | – | 113 | 3.6 |
| COc1ccc(CNc2ncnc3c2ncn3C(C)C)cc1O | – | 104 | 4.5 |
| CCCCCNc1ncnc2c1ncn2C(C)C | – | 144 | 6.9 |
| CC(C)n1cnc2c(NCc3ccccc3O)ncnc21 | – | 125 | 4.4 |
| COc1ccc(CNc2ncnc3c2ncn3C(C)C)cc1 | – | > 167 | 3.8 |

The next lines start with the values.

| IC50 [1] [µM] | IC50 [2] [uM dm**-3] | IC50 [3] [µM] | SMILES |
| --- | --- | --- | --- |
| 46 | – | – | COc1ccc(CNc2ncnc3c(C(C)C)n[nH]c23)cc1 |
| 29 | – | 11 | CC(C)c1n[nH]c2c(NCc3ccccc3Br)ncnc12 |
| 54 | – | – | CC(C)c1n[nH]c2c(NCc3ccccc3O)ncnc12 |
| 18.4 | – | 0.9 | CC(C)c1n[nH]c2c(Nc3cccc(Cl)c3)ncnc12 |
| – | 112 | – | CC(C)c1n[nH]c2c(NCc3ccc(O)cc3)ncnc12 |
| – | > 167 | 2.5 | CC(C)c1n[nH]c2c(NCc3ccco3)ncnc12 |
| 49 | – | 23 | CC(C)n1cnc2c(NCc3ccccc3Br)ncnc21 |
| – | 152 | – | CC(C)=CCNc1ncnc2c(C(C)C)n[nH]c12 |
| 26 | – | 1.1 | COc1ccc(CNc2ncnc3c(C(C)C)n[nH]c23)cc1O |
| 88 | – | 1.7 | CC(C)c1n[nH]c2c(NCc3cccc(O)c3)ncnc12 |
| 66 | – | 1.2 | CC(C)c1n[nH]c2c(NCc3ccccc3)ncnc12 |
